Type in all cases: biochemical
Test [1] concerns the target T1, YES kinase (Homo sapiens, UniProt P07947).
T1 construct: purchased Carna 08-175
As to the kind of experiment: IC50 evaluation assay of Src family kinase inhibition: YES. Conditions: 28° C.; average of two tests; read-out: IC50 (nM) inhibiting Src family kinase YES. As for the experimental part: (§1) 1. The compound was dissolved in 100% DMSO, diluted into solutions with appropriate concentration gradients with water according to experimental requirement, and added to a 96-well plate.
(§2) 2. c-Src kinase (Carna, Cat. No. 08-173, Lot. No. 05CBS-1367), LYNαkinase (Carna, Cat. No. 08-171, Lot. No. 06CBS-3296D), FYN kinase (Carna, Cat. No. 08-068, Lot. No. 05CBS-1032), LCK kinase (Carna, Cat. No. 08-170, Lot. No. 07CBS-2482), HCK kinase (BPS, Cat. No. 40440, Lot. No. 1001), FGR kinase (Carna, Cat. No. 08-166, Lot. No. 05CBS-2781), YES kinase (Carna, Cat. No. 08-175, Lot. No. 06CBS-3247) were diluted to the optimum concentration with the following buffer solution: 50 mM HEPES, pH 7.5, 0.0015% Brij-35, 10 mM MgCl2, 2 mM DTT. Transfer to the 96-well plate and incubate with the compound at 28° C. for a period of time.
(§3) 3. The buffer solution (100 mM HEPES, pH 7.5, 0.0015% Brij-35, 0.2% Coating Reagent and […]) was added to terminate the reaction.
(§4) 4. The conversion rate was read with Caliper Reader. The inhibition rate was calculated as the average of two tests.

Test [2] concerns the target T2, HCK kinase (Homo sapiens, UniProt P08631).
T2 construct: purchased BPS 40440
As to the kind of experiment: IC50 evaluation assay of Src family kinase inhibition: HCK. Conditions: 28° C.; average of two tests; read-out: IC50 (nM) inhibiting Src family kinase HCK. As for the experimental part: as §1, §2, §3, §4

For test [3], the target named is T3, FGFR2 kinase (Homo sapiens, UniProt P21802).
T3 construct: purchased Carna 08-134
As to the kind of experiment: IC50 evaluation assay of FGFR2 kinase inhibition (Caliper). Conditions: 28° C.; average of two tests; read-out: IC50 (nM) inhibiting FGFR 2 kinase. As for the experimental part: as §1
(§5) 2. FGFR1 kinase (Carna, Cat. No. 08-133, Lot. No. 09CBS-0989) and FGFR2 kinase (Carna, Cat. No. 08-134, Lot. No. 07CBS-2468), JAK3 kinase (Carna, Cat. No. 08-135, Lot. No. 06CBS-3177) were diluted to the optimum concentration with the following buffer solution: 50 mM HEPES, pH 7.5, 0.0015% Brij-35, 2 mM DTT. Transfer to the 96-well plate and incubate with the compound at 28° C. for a period of time.
as §3, §4

Test [4] deals with T4, FLT3 kinase (FLT3-WT) (Homo sapiens, UniProt P36888).
T4 construct: purchased Carna 08-154
T4 sequence (P36888 27-993): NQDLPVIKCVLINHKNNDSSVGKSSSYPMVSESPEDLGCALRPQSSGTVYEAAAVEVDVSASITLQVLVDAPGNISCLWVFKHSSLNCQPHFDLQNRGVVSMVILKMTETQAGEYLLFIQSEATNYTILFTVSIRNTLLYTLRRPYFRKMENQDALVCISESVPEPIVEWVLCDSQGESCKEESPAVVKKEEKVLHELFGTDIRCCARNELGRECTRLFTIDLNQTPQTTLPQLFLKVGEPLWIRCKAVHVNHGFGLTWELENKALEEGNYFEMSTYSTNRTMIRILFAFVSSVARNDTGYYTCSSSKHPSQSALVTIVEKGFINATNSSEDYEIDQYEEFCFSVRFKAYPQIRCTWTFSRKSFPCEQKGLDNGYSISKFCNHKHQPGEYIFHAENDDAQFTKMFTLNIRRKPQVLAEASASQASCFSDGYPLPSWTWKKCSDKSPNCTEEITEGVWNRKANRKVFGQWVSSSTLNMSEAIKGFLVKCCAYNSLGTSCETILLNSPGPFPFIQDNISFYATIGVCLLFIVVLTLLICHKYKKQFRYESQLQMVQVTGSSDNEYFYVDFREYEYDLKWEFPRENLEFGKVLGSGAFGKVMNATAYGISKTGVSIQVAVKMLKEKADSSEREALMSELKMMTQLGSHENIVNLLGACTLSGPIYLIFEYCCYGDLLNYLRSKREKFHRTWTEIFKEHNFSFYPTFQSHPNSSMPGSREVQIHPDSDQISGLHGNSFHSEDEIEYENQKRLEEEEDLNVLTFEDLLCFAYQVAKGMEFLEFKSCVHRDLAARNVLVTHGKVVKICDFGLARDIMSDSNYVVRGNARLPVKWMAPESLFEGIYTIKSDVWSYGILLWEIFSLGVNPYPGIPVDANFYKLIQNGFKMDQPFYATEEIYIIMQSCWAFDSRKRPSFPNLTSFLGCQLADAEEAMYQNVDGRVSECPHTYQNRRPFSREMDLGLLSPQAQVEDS
Briefly: IC50 evaluation assay of FLT3 kinase inhibition (Caliper). As to conditions: 28° C.; average of two tests; read-out: IC50 (nM) inhibiting FLT3-WT kinase. As for the experimental part: as §1
2. FLT3 kinase (Carna, Cat. No. 08-154, Lot. No. 07CBS-2350), FLT3-ITD kinase (Invitrogen, Cat. No. PV6191, Lot. No. 1753453) and FLT3-D835Y kinase (Invitrogen, Cat. No. PR7450A, Lot. No. 1629729C) were diluted to the optimum concentration with the following buffer solution: 50 mM HEPES, pH 7.5, 0.0015% Brij-35, 10 mM MgCl2, 2 mM DTT. Transfer to the 96-well plate and incubate with the compound at 28° C. for a period of time.
as §3, §4

The target of test [5] is T5, LCK kinase (Homo sapiens, UniProt P06239).
T5 construct: purchased Carna 08-170
Briefly: IC50 evaluation assay of Src family kinase inhibition: LCK. Conditions: 28° C.; average of two tests; read-out: IC50 (nM) inhibiting Src family kinase LCK. Here is the method: as §1, §2, §3, §4

The target of test [6] is T6, c-Src kinase (Homo sapiens, UniProt P12931).
T6 construct: purchased Carna 08-173
As to the kind of experiment: IC50 evaluation assay of Src family kinase inhibition: c-Src. As to conditions: 28° C.; average of two tests; read-out: IC50 (nM) inhibiting Src family kinase c-Src. Here is the method:
as §1, §2, §3, §4

In test [7] the target is T7, FGFR1 kinase (Homo sapiens, UniProt P11362).
T7 construct: purchased Carna 08-133
As to the kind of experiment: IC50 evaluation assay of FGFR1 kinase inhibition (Caliper). As to conditions: 28° C.; average of two tests; read-out: IC50 (nM) inhibiting FGFR 1 kinase. Here is the method:
as §1, §5, §3, §4

The target in test [8] is T8, FGR kinase (Homo sapiens, UniProt P09769).
T8 construct: purchased Carna 08-166
Briefly: IC50 evaluation assay of Src family kinase inhibition: FGR. As to conditions: 28° C.; average of two tests; read-out: IC50 (nM) inhibiting Src family kinase FGR. As for the experimental part:
as §1, §2, §3, §4

Test [9] addresses T9, FGFR 3 (Homo sapiens, UniProt P22607).
T9 construct: purchased Carna 08-135
As to the kind of experiment: IC50 evaluation assay of FGFR3 kinase inhibition (Caliper). As to conditions: 28° C.; average of two tests; read-out: IC50 (nM) inhibiting FGFR 3 kinase.

Bounds are passed on as bounds.

For two molecules, IC50 results are on record in patent publication US10494378B2, “Fused ring pyrimidine compound, intermediate, and preparation method, composition and use thereof” (GUANGZHOU MAXINOVEL PHARMACEUTICALS CO., LTD., priority 2015, dated 2019).

T3 sequence (P21802 22-821): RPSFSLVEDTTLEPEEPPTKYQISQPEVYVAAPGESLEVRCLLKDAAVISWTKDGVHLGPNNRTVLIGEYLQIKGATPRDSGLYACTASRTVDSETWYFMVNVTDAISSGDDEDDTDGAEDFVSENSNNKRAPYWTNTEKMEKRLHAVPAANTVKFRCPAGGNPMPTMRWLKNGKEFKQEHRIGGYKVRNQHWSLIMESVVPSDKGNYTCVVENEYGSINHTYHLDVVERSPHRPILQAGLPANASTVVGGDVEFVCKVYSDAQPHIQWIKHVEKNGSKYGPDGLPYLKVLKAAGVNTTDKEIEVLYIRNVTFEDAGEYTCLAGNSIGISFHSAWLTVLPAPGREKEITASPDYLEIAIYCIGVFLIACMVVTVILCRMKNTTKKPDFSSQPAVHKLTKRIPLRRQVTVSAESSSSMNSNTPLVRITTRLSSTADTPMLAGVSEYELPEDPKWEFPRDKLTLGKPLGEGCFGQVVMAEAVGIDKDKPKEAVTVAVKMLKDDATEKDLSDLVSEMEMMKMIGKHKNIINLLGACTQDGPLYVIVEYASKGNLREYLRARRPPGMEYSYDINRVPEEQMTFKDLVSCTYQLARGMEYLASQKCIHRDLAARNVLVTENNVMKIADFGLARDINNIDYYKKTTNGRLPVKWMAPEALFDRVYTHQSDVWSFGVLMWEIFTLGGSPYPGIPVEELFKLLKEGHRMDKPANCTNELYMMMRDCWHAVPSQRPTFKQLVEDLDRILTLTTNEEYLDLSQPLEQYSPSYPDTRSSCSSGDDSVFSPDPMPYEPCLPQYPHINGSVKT
T9 sequence (P22607 23-806): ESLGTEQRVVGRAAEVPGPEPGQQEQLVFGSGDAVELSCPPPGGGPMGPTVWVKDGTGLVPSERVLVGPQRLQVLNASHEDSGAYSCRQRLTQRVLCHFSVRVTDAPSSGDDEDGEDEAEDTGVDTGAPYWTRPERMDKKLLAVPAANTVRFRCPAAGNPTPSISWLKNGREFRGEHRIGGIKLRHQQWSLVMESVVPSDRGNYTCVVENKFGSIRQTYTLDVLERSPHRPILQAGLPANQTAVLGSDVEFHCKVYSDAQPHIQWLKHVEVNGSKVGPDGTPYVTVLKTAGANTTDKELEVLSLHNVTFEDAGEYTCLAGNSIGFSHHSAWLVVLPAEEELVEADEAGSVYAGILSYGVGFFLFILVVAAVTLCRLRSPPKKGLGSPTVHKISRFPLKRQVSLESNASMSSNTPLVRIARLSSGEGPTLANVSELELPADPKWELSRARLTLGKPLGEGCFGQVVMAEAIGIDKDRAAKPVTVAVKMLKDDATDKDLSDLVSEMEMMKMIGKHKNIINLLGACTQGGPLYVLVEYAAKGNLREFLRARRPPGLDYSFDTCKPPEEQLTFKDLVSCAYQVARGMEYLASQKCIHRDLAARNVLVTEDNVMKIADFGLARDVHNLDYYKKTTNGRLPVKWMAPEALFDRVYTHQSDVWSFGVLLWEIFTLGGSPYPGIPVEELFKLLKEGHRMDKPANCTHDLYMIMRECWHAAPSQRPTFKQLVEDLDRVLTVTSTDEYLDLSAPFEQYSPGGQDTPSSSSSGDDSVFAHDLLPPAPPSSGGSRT
T1 sequence (P07947 whole entry): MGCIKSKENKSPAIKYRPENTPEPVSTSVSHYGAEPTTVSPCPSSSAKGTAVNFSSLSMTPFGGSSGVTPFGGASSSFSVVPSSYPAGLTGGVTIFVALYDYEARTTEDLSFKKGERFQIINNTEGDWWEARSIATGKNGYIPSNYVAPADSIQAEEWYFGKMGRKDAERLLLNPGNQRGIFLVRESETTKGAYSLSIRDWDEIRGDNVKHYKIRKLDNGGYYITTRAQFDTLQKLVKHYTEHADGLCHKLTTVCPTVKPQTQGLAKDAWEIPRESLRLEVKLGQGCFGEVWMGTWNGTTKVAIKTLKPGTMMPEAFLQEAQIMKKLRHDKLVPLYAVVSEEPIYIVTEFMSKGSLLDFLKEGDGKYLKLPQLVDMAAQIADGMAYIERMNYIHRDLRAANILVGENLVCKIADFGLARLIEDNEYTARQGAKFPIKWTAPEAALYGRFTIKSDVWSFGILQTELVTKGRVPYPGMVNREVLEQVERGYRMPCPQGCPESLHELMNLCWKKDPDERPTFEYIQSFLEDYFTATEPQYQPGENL
T6 sequence (P12931 whole entry): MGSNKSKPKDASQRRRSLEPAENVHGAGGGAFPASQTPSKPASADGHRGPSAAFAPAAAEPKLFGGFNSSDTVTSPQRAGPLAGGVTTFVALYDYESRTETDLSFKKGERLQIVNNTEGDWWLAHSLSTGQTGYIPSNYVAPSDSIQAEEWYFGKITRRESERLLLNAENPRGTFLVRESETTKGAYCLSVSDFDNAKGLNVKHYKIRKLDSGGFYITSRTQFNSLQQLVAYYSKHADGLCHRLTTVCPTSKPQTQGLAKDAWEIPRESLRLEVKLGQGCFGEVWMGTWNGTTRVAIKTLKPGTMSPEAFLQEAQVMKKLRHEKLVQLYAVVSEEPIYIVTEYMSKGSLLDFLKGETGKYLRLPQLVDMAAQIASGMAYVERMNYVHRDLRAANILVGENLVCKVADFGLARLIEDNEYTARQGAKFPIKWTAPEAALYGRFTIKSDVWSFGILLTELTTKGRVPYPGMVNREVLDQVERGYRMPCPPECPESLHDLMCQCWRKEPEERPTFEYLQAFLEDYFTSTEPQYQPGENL
T7 sequence (P11362 22-822): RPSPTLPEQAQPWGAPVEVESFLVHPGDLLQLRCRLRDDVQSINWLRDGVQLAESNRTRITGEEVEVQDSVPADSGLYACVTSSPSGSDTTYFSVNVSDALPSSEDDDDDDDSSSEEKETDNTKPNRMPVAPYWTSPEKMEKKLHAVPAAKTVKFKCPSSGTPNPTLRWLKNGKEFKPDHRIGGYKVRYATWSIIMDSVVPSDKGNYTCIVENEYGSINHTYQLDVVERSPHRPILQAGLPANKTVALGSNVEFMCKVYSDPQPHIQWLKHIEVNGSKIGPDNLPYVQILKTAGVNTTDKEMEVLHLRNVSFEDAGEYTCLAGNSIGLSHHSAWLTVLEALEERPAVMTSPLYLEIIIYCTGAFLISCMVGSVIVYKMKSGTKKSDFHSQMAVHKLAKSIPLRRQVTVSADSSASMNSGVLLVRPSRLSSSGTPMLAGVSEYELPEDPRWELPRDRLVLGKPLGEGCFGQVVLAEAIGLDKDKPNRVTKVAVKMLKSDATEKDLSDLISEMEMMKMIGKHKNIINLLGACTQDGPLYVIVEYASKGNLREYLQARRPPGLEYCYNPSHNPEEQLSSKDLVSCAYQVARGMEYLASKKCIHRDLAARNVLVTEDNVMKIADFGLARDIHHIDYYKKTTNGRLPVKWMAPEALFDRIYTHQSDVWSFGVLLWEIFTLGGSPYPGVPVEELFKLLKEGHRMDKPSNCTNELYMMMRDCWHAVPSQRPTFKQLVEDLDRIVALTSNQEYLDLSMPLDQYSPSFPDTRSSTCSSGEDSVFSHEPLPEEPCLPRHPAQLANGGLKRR
T2 sequence (P08631 whole entry): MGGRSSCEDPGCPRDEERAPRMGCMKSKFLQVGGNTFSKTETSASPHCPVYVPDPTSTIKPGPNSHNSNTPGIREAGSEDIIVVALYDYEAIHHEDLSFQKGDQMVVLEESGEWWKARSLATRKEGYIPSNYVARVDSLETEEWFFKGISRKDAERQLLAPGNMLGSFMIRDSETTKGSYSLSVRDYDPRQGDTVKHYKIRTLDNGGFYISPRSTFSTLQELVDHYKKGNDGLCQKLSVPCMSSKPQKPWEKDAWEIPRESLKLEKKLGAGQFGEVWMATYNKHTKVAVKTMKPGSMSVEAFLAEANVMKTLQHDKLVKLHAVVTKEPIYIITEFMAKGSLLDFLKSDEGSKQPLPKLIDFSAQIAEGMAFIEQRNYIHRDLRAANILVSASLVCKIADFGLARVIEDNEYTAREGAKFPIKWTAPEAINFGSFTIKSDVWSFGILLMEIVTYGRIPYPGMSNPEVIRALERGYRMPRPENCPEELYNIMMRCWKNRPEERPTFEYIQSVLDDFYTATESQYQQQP
T8 sequence (P09769 whole entry): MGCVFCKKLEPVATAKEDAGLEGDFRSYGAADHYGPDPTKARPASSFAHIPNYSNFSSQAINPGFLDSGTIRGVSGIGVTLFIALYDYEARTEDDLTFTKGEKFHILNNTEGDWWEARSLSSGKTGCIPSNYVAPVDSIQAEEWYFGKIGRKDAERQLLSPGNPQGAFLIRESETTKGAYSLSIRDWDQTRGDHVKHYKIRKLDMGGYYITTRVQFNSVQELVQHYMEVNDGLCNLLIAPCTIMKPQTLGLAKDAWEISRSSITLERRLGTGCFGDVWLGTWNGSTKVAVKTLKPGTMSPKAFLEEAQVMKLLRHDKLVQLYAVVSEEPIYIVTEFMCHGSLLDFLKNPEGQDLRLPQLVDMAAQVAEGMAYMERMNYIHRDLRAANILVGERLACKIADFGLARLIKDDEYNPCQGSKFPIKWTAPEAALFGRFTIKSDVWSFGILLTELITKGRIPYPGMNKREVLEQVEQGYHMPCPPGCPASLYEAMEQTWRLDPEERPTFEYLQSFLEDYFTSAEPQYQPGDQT
T5 sequence (P06239 whole entry): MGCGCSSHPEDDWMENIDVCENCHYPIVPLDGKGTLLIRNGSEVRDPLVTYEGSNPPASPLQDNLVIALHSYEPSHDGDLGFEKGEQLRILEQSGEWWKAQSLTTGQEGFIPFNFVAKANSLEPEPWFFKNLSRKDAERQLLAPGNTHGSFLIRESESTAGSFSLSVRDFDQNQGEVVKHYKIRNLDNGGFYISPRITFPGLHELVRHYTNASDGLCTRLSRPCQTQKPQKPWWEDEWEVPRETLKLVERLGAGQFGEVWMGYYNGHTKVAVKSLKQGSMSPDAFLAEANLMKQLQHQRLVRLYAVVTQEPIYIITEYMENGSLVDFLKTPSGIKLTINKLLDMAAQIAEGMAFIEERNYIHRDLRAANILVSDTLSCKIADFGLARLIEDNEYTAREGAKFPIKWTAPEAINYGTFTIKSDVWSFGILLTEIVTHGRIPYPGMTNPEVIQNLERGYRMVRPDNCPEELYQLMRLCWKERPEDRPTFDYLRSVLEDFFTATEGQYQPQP

`COc1cc(F)ccc1-c1c(C)sc2cnc(Nc3cnn(C4CCNCC4)c3)nc12` [Compound 31, N-[7-(4-fluoro-2-methoxyphenyl)-6-methylthieno[3,2-d]pyrimidinyl-2-yl]-1-(piperidinyl-4-yl)-1H-pyrazol-4-amine]: the IC50 in test [1] amounted to 5.8 nM; in test [2], 30 nM; in [3], 10 nM; in test [4], 0.28 nM; in test [5], 5.5 nM; in [6] it was 6 nM. Further, the results for the IC50 in [7], in [8] and in test [9] were 5.1 nM, 14 nM and 16 nM, respectively.
In the case of `COc1cc(F)ccc1-c1c(C)sc2cnc(Nc3cnn(C4CCN(CCO)CC4)c3)nc12` [Compound 34, 2-[4-(4-{[7-(4-fluoro-2-methoxyphenyl)-6-methylthieno[3,2-d]pyrimidinyl-2-yl]amino}-1H-pyrazol-1-yl)-piperidinyl-1-yl]-1-ethanol], the IC50 in [1] is 6.8 nM; in [2] it was 27 nM; in [3] it was 8.9 nM; in test [4], less than 5 nM; in [5] it was less than 5 nM; in [6] it was 6.3 nM. The IC50 was 3.8 nM in test [7], 11 nM in test [8] and 15 nM in [9].
